This assay concerns the target T1, ERR1 (also known as ERR-α or ERR-1) (Homo sapiens, UniProt P11474).
T1 sequence (P11474 193-421 limits assumed): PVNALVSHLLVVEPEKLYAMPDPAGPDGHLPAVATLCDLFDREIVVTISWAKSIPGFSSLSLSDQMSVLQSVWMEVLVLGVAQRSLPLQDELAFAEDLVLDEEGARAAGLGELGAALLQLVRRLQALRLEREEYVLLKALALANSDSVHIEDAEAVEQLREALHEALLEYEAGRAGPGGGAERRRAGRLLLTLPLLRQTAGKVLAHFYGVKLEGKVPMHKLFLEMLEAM
The assay is described as follows: TR-FRET assay (disruption of co-activator peptide binding to ERR1 LBD). As to conditions: 6 nM 6His-ERR1LBD, 6 nM GST-SRC-2 peptide; average of 3 independent experiments. It counts as biochemical. In short, it runs like this: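 Homogeneous TR-FRET measuring displacement of GST-hSRC2 co-activator peptide (6 nM) from His-tagged ERR1 LBD (6 nM), detected with α-GST Eu cryptate (30 nM) and α-His-XL665 (7.5 nM). Buffer 25 mM Tris pH 8, 2.5 mM Hepes, 20 mM KCl, 1 mM DTT, 0.05 mg/mL delipidated BSA; equilibration 4-18 h at 25° C. Hyperbolic dose-response fit, mean of 3 experiments.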
A general note: Time-resolved FRET reads energy transfer from a long-lived donor to a nearby acceptor.
A word on the EC50: it is the concentration giving half of the maximal effect. A high value points to a need for much substance. Molecule `CC(C)(C)NS(=O)(=O)CN1C(=O)S/C(=C\c2ccc3c(cnn3Cc3ccc(Cl)cc3C(F)(F)F)c2)C1=O` [Compound 160, N-tert-Butyl-1-[(5Z)-5-({1-[4-chloro-2-(trifluoromethyl)benzyl]-1H-indazol-5-yl}methylidene)-2,4-dioxo-1,3-thiazolidin-3-yl]methanesulfonamide] registered an EC50 of 77 nM.
`O=C1OCCN1CCN1C(=O)S/C(=C\c2ccc3c(cnn3Cc3ccc(Cl)cc3C(F)(F)F)c2)C1=O` [Compound 131, (5Z)-5-({1-[4-Chloro-2-(trifluoromethyl)benzyl]-1H-indazol-5-yl}methylidene)-3-[2-(2-oxo-1,3-oxazolidin-3-yl)ethyl]-1,3-thiazolidine-2,4-dione] displayed a concentration giving a half-maximal response (EC50) of 5 nM. Compared with the last molecule, the EC50 is about 15-fold lower.
The molecule `O=C1S/C(=C\c2ccc3c(cnn3Cc3ccc(Cl)cc3C(F)(F)F)c2)C(=O)N1CCNc1ccc([N+](=O)[O-])cn1` [Compound 110, (5Z)-5-({1-[4-Chloro-2-(trifluoromethyl)benzyl]-1H-indazol-5-yl}methylidene)-3-{2-[(5-nitropyridin-2-yl)amino]ethyl}-1,3-thiazolidine-2,4-dione] came in with an EC50 of 438 nM.
The value for `O=C1S/C(=C\c2ccc3c(cnn3Cc3ccc(Cl)cc3C(F)(F)F)c2)C(=O)N1C[C@@H]1CN2CCC[C@H]2CO1` [Compound 203, (5Z)-5-({1-[4-Chloro-2-(trifluoromethyl)benzyl]-1H-indazol-5-yl}methylidene)-3-[(3S,8aS)-hexahydro-1H-pyrrolo[2,1-c] [1,4]oxazin-3-ylmethyl]-1,3-thiazolidine-2,4-dione] was 53 nM.
As for `CS(=O)(=O)NN1C(=O)S/C(=C\c2ccc3c(cnn3Cc3ccc(F)cc3C(F)(F)F)c2)C1=O` [Compound 363, N-[(5Z)-5-({1-[4-Fluoro-2-(trifluoromethyl)benzyl]-1H-indazol-5-yl}methylidene)-2,4-dioxo-1,3-thiazolidin-3-yl]methanesulfonamide], the figure is 59 nM; as for `O=C1S/C(=C\c2ccc3c(cnn3Cc3ccc(Cl)cc3C(F)(F)F)c2)C(=O)N1[C@@H]1CCNC[C@H]1F` (relative stereo) [Compound 273, (5Z)-5-({1-[4-Chloro-2-(trifluoromethyl)benzyl]-1H-indazol-5-yl}methylidene)-3-(trans-3-fluoropiperidin-4-yl)-1,3-thiazolidine-2,4-dione], 34 nM.
As for `O=C1S/C(=C\c2ccc3c(cnn3Cc3ccc(Cl)cc3C(F)(F)F)c2)C(=O)N1C[C@@H]1C[C@H](O)CN1` (stereo in doubt) [Compound 286, (5Z)-5-({1-[4-Chloro-2-(trifluoromethyl)benzyl]-1H-indazol-5-yl}methylidene)-3-{[(2S,4S)-4-hydroxypyrrolidin-2-yl]methyl}-1,3-thiazolidine-2,4-dione], the figure is 456 nM; as for `COc1ccc(Cn2ncc3cc(/C=C4\SC(=O)N(C[C@@H]5CCCN5C)C4=O)ccc32)c(C(F)(F)F)c1` [Compound 23, (5Z)-5-({1-[4-Methoxy-2-(trifluoromethyl)benzyl]-1H-indazol-5-yl}methylidene)-3-{[(2S)-1-methylpyrrolidin-2-yl]methyl}-1,3-thiazolidine-2,4-dione], 45 nM; as for `O=C1S/C(=C\c2ccc3c(c2)nnn3Cc2ccc(Cl)cc2C(F)(F)F)C(=O)N1Cc1nnn[nH]1` [Compound 265, (5Z)-5-({1-[4-Chloro-2-(trifluoromethyl)benzyl]-1H-benzotriazol-5-yl}methylidene)-3-(1H-tetrazol-5-ylmethyl)-1,3-thiazolidine-2,4-dione], 40 nM.
On to `O=C1S/C(=C\c2ccc3c(cnn3Cc3ccc(Cl)cc3C(F)(F)F)c2)C(=O)N1C[C@@H]1COCCN1` [Compound 198, (5Z)-5-({1-[4-Chloro-2-(trifluoromethyl)benzyl]-1H-indazol-5-yl}methylidene)-3-[(3R)-morpholin-3-ylmethyl]-1,3-thiazolidine-2,4-dione], for which it took 31 nM to reach a half-maximal effect (EC50). This EC50 and that of the molecule before are within 1.5-fold of each other.
On to `COCCN1CCO[C@H](CN2C(=O)S/C(=C\c3ccc4c(cnn4Cc4ccc(Cl)cc4C(F)(F)F)c3)C2=O)C1` [Compound 189, (5Z)-5-({1-[4-Chloro-2-(trifluoromethyl)benzyl]-1H-indazol-5-yl}methylidene)-3-{[(2S)-4-(2-methoxyethyl)morpholin-2-yl]methyl}-1,3-thiazolidine-2,4-dione], for which the midpoint of the response, the EC50, lay at 160 nM.
`O=C1S/C(=C\c2ccc3c(cnn3Cc3ccc(Cl)cc3C(F)(F)F)c2)C(=O)N1[C@@H]1CNC[C@@H]1F` (relative stereo) [Compound 322, (5Z)-5-({1-[4-Chloro-2-(trifluoromethyl)benzyl]-1H-indazol-5-yl}methylidene)-3-[cis-4-fluoropyrrolidin-3-yl]-1,3-thiazolidine-2,4-dione] displayed an EC50 of 60 nM.
The molecule `O=C1S/C(=C\c2ccc3c(cnn3Cc3ccc(Cl)cc3C(F)(F)F)c2)C(=O)N1C[C@@H]1CCCN1` [Compound 145, (5Z)-5-({1-[4-Chloro-2-(trifluoromethyl)benzyl]-1H-indazol-5-yl}methylidene)-3-[(2S)-pyrrolidin-2-ylmethyl]-1,3-thiazolidine-2,4-dione] showed an EC50 of 27 nM.
The value for `O=C(O)C(CC1CCNCC1)N1C(=O)S/C(=C\c2ccc3c(cnn3Cc3ccc(Cl)cc3C(F)(F)F)c2)C1=O` (stereo not shown) [Compound 228, 2-[(5Z)-5-({1-[4-Chloro-2-(trifluoromethyl)benzyl]-1H-indazol-5-yl}methylidene)-2,4-dioxo-1,3-thiazolidin-3-yl]-3-piperidin-4-ylpropanoic acid] was 49 nM.
As for `Cc1nc(CN2C(=O)S/C(=C\c3ccc4c(c3)nnn4Cc3ccc(Cl)cc3C(F)(F)F)C2=O)n[nH]1` [Compound 263, (5Z)-5-({1-[4-Chloro-2-(trifluoromethyl)benzyl]-1H-benzotriazol-5-yl}methylidene)-3-[(5-methyl-1H-1,2,4-triazol-3-yl)methyl]-1,3-thiazolidine-2,4-dione], the figure is 16 nM; as for `O=C1S/C(=C\c2ccc3c(cnn3Cc3ccc(Cl)cc3C(F)(F)F)c2)C(=O)N1CCN1CCCNCC1` [Compound 104, (5Z)-5-({1-[4-Chloro-2-(trifluoromethyl)benzyl]-1H-indazol-5-yl}methylidene)-3-[2-(1,4-diazepan-1-yl)ethyl]-1,3-thiazolidine-2,4-dione], 112 nM.
As for `CN1[C@@H]2CC[C@H]1C[C@H](N1C(=O)S/C(=C\c3ccc4c(cnn4Cc4ccc(C(F)(F)F)cc4C(F)(F)F)c3)C1=O)C2` [Compound 62, (5Z)-5-({1-[2,4-Bis(trifluoromethyl)benzyl]-1H-indazol-5-yl}methylidene)-3-[(3-exo)-8-methyl-8-azabicyclo[3.2.1]oct-3-yl]-1,3-thiazolidine-2,4-dione], the figure is 19 nM; as for `O=C1S/C(=C\c2ccc3c(cnn3Cc3ccc(Cl)cc3C(F)(F)F)c2)C(=O)N1C[C@@H]1CSCCN1` [Compound 98, (5Z)-5-({1-[4-Chloro-2-(trifluoromethyl)benzyl]-1H-indazol-5-yl}methylidene)-3-[(3R)-thiomorpholin-3-ylmethyl]-1,3-thiazolidine-2,4-dione], 980 nM; as for `CC1(C)OCC(CN2C(=O)S/C(=C\c3ccc4c(cnn4Cc4ccc(Cl)cc4C(F)(F)F)c3)C2=O)O1` (stereo not shown) [Compound 42, (5Z)-5-({1-[4-Chloro-2-(trifluoromethyl)benzyl]-1H-indazol-5-yl}methylidene)-3-[(2,2-dimethyl-1,3-dioxolan-4-yl)methyl]-1,3-thiazolidine-2,4-dione], 46 nM.

Values taken from patent US8796256B2 (Janssen Pharmaceutica NV, priority 2010, dated 2014).
